According to patent US6737383B1, “Herbicidal oxadiazolidines” (priority 1999, dated 2004):

Assays:
purple nutsedge = assay: Test B pre/postemergence purple nutsedge; format: in vivo, Cyperus rotundus
Procedure, shortened: (§1)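 Herbicidal effect was estimated by eye on a ten-point control scale after plants spent twelve to sixteen days in a greenhouse following soil or foliar treatment. Foliar sprays targeted plants at one to four leaves; all doses were formulated in a non-phytotoxic solvent with surfactant.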

soybean = assay: Test B pre/postemergence soybean; format: in vivo, Glycine max
Procedure, shortened: as §1

cocklebur = assay: Test B pre/postemergence cocklebur; format: in vivo, Xanthium strumarium
Procedure, shortened: as §1

surinam grass = assay: Test B pre/postemergence surinam grass; format: in vivo, Brachiaria decumbens
Procedure, shortened: as §1

giant foxtail = assay: Test B pre/postemergence giant foxtail; format: in vivo, Setaria faberii
Procedure, shortened: as §1

duck salad = assay: Test B flood test duck salad; format: in vivo, Heteranthera limosa
Procedure, shortened: (§2)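 Each value is a visual injury score relative to controls, with 10 meaning complete control and 0 no effect. Evaluation took place twelve to sixteen days after the 2-leaf-stage plants were treated and kept in the greenhouse.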

blackgrass = assay: Test B pre/postemergence blackgrass; format: in vivo, Alopecurus myosuroides
Procedure, shortened: as §1

rice = assay: Test B flood test rice; format: in vivo, Oryza sativa
Procedure, shortened: as §2

crabgrass = assay: Test B pre/postemergence crabgrass; format: in vivo, Digitaria sanguinalis
Procedure, shortened: as §1

pigweed = assay: Test B pre/postemergence pigweed; format: in vivo, Amaranthus retroflexus
Procedure, shortened: as §1

sugar beet = assay: Test B pre/postemergence sugar beet; format: in vivo, Beta vulgaris
Procedure, shortened: as §1

bamyardgrass = assay: Test B flood test barnyardgrass; format: in vivo, Echinochloa crus-galli
Procedure, shortened: as §2

corn = assay: Test B pre/postemergence corn; format: in vivo, Zea mays
Procedure, shortened: as §1

rape = assay: Test B pre/postemergence rape; format: in vivo, Brassica napus
Procedure, shortened: as §1

wheat = assay: Test B pre/postemergence wheat; format: in vivo, Triticum aestivum
Procedure, shortened: as §1

smallflower flatsedge = assay: Test B flood test smallflower flatsedge; format: in vivo, Cyperus difformis
Procedure, shortened: as §2

[1] = Postemergence, Rate 125 g/ha, scale of 0 to 10 where 0 is no effect and 10 is complete control
[2] = Preemergence, Rate 62 g/ha, scale 0 to 10 (0 no effect, 10 complete control)
[3] = Preemergence, Rate 125 g/ha, 0 is no effect, 10 is complete control
[4] = Preemergence, Rate 250 g/ha, scale 0 to 10, 0 is no effect, 10 is complete control
[5] = Preemergence, Rate 500 g/ha, scale 0 to 10 (0 no effect, 10 complete control)
[6] = Rate 62 g/ha, Postemergence, scale of 0 to 10 where 0 is no effect and 10 is complete control
[7] = Rate 250 g/ha, Postemergence, scale 0 to 10, 0 is no effect, 10 is complete control
[8] = Rate 500 g/ha, Postemergence, scale 0 to 10
[9] = Postemergence (flood test species), Rate 125 g/ha, scale of 0 to 10 where 0 is no effect and 10 is complete control
[10] = Rate 62 g/ha, Postemergence section, flood test species, scale of 0 to 10 where 0 is no effect and 10 is complete control
[11] = Rate 250 g/ha, Postemergence (flood test), scale 0 to 10, 0 is no effect, 10 is complete control
[12] = Rate 500 g/ha, listed under Postemergence (flood test species), scale 0 to 10

## CCN(CC)C(=O)n1oc(=O)n(Cc2ccccc2)c1=O [Compound 152]
Purple nutsedge; [1]
  Nutsedge plant response rating: 0
Purple nutsedge; [2]
  Nutsedge plant response rating: 0
Purple nutsedge; [3]
  Nutsedge plant response rating (0 to 10 scale): 0
Purple nutsedge; [4]
  Nutsedge plant response rating: 0
Purple nutsedge; [5]
  Nutsedge plant response rating: 0
Purple nutsedge; [6]
  Nutsedge plant response rating: 0
Purple nutsedge; [7]
  Plant response rating, Nutsedge: 0
Purple nutsedge; [8]
  Nutsedge plant response rating: 0
soybean; [1]
  Soybean plant response rating: 0
soybean; [2]
  Soybean plant response rating: 0
soybean; [3]
  Soybean plant response rating (0 to 10 scale): 0
soybean; [4]
  Soybean plant response rating: 0
soybean; [5]
  Soybean plant response rating: 0
soybean; [6]
  Soybean plant response rating: 0
soybean; [7]
  Plant response rating, Soybean: 1
soybean; [8]
  Soybean plant response rating: 1
cocklebur; [1]
  Cocklebur plant response rating: 0
cocklebur; [2]
  Cocklebur plant response rating: 0
cocklebur; [3]
  Cocklebur plant response rating (0 to 10 scale): 0
cocklebur; [4]
  Cocklebur plant response rating: 0
cocklebur; [5]
  Cocklebur plant response rating: 0
cocklebur; [6]
  Cocklebur plant response rating: 0
cocklebur; [7]
  Plant response rating, Cocklebur: 0
cocklebur; [8]
  Cocklebur plant response rating: 0
Surinam grass; [1]
  B. signalgrass plant response rating: 0
Surinam grass; [2]
  B. signalgrass plant response rating: 0
Surinam grass; [3]
  B. signalgrass plant response rating (0 to 10 scale): 4
Surinam grass; [4]
  B. signalgrass plant response rating: 4
Surinam grass; [5]
  B. signalgrass plant response rating: 6
Surinam grass; [6]
  B. signalgrass plant response rating: 0
Surinam grass; [7]
  Plant response rating, B. signalgrass: 0
Surinam grass; Rate 500 g/ha, Postemergence, scale of 0 to 10 where 0 is no effect and 10 is complete control
  B. signalgrass plant response rating: 0
Giant foxtail; [1]
  Giant foxtail plant response rating: 0
Giant foxtail; [2]
  Giant foxtail plant response rating: 0
Giant foxtail; [3]
  Giant foxtail plant response rating (0 to 10 scale): 0
Giant foxtail; [4]
  Giant foxtail plant response rating: 3
Giant foxtail; [5]
  Giant foxtail plant response rating: 5
Giant foxtail; [6]
  Giant foxtail plant response rating: 0
Giant foxtail; [7]
  Plant response rating, Giant foxtail: 0
Giant foxtail; [8]
  Giant foxtail plant response rating: 3
Duck salad; [9]
  Ducksalad plant response rating: 0
Duck salad; [10]
  Ducksalad plant response rating: 0
Duck salad; [11]
  Plant response rating, Ducksalad: 0
Duck salad; [12]
  Ducksalad plant response rating: 0
blackgrass; [1]
  Blackgrass plant response rating: 0
blackgrass; [2]
  Blackgrass plant response rating: 0
blackgrass; [3]
  Blackgrass plant response rating (0 to 10 scale): 0
blackgrass; [4]
  Blackgrass plant response rating: 0
blackgrass; [5]
  Blackgrass plant response rating: 3
blackgrass; [6]
  Blackgrass plant response rating: 0
blackgrass; [7]
  Plant response rating, Blackgrass: 0
blackgrass; [8]
  Blackgrass plant response rating: 2
rice; [9]
  Rice plant response rating: 0
rice; [10]
  Rice plant response rating: 0
rice; [11]
  Plant response rating, Rice: 0
rice; [12]
  Rice plant response rating: 0
crabgrass; [1]
  Crabgrass plant response rating: 0
crabgrass; [2]
  Crabgrass plant response rating: 0
crabgrass; [3]
  Crabgrass plant response rating (0 to 10 scale): 0
crabgrass; [4]
  Crabgrass plant response rating: 1
crabgrass; [5]
  Crabgrass plant response rating: 3
crabgrass; [6]
  Crabgrass plant response rating: 0
crabgrass; [7]
  Plant response rating, Crabgrass: 2
crabgrass; [8]
  Crabgrass plant response rating: 3
pigweed; [1]
  Redroot pigweed plant response rating: 0
pigweed; [2]
  Redroot pigweed plant response rating: 0
pigweed; [3]
  Redroot pigweed plant response rating (0 to 10 scale): 0
pigweed; [4]
  Redroot pigweed plant response rating: 0
pigweed; [5]
  Redroot pigweed plant response rating: 0
pigweed; [6]
  Redroot pigweed plant response rating: 0
pigweed; [7]
  Plant response rating, Redroot pigweed: 0
pigweed; [8]
  Redroot pigweed plant response rating: 0
Sugar beet; [1]
  Sugarbeets plant response rating: 0
Sugar beet; [2]
  Sugarbeets plant response rating: 0
Sugar beet; [3]
  Sugarbeets plant response rating (0 to 10 scale): 0
Sugar beet; [4]
  Sugarbeets plant response rating: 0
Sugar beet; [5]
  Sugarbeets plant response rating: 0
Sugar beet; [6]
  Sugarbeets plant response rating: 0
Sugar beet; [7]
  Plant response rating, Sugarbeets: 0
Sugar beet; [8]
  Sugarbeets plant response rating: 0
bamyardgrass; [9]
  Barnyardgrass plant response rating: 0
bamyardgrass; [10]
  Barnyardgrass plant response rating: 0
bamyardgrass; [11]
  Plant response rating, Barnyardgrass: 0
bamyardgrass; Rate 500 g/ha, listed under Postemergence (flood test species), scale 0 to 10, 0 no effect, 10 complete control
  Barnyardgrass plant response rating: 0
corn; [1]
  Corn plant response rating: 0
corn; [2]
  Corn plant response rating: 0
corn; [3]
  Corn plant response rating (0 to 10 scale): 0
corn; [4]
  Corn plant response rating: 0
corn; [5]
  Corn plant response rating: 0
corn; [6]
  Corn plant response rating: 0
corn; [7]
  Plant response rating, Corn: 0
corn; [8]
  Corn plant response rating: 0
rape; [1]
  Rape plant response rating: 0
rape; [2]
  Rape plant response rating: 0
rape; [3]
  Rape plant response rating (0 to 10 scale): 0
rape; [4]
  Rape plant response rating: 0
rape; [5]
  Rape plant response rating: 0
rape; [6]
  Rape plant response rating: 0
rape; [7]
  Plant response rating, Rape: 0
rape; [8]
  Rape plant response rating: 0
wheat; [2]
  Wheat plant response rating: 0
wheat; [3]
  Wheat plant response rating (0 to 10 scale): 0
wheat; [4]
  Wheat plant response rating: 0
wheat; [5]
  Wheat plant response rating: 0
wheat; [6]
  Wheat plant response rating: 0
wheat; [7]
  Plant response rating, Wheat: 0
wheat; [8]
  Wheat plant response rating: 0
Smallflower flatsedge; [9]
  S. Flatsedge plant response rating: 0
Smallflower flatsedge; [10]
  S. Flatsedge plant response rating: 0
Smallflower flatsedge; [11]
  Plant response rating, S. Flatsedge: 0
Smallflower flatsedge; [12]
  S. Flatsedge plant response rating: 0
